How the values were obtained:
[1] = test system: complex II; details: cited from earlier work; for concentration to achieve half-maximal inhibition: Drose et al 2011
[2] = test system: ischemia-reperfusion injury; details: chemical preconditioning, rats; Hu et al, Hirata et al; cited from earlier work
[3] = test system: ischaemic succinate accumulation (GABA shunt); assay: Ex vivo perfused mouse heart, no flow ischaemia: succinate abundance (LC-MS); details: 30 min no flow ischaemia, vigabatrin 100, 300, 700 μM
Protocol: FIG. 9: Effect of GABA transaminase inhibition by vigabatrin on GABA shunt and CAC metabolites in the ischaemic myocardium. Perfused mouse hearts were subjected to 30 min no flow ischaemia±continuous infusion of vigabatrin (Vig; 100, 300, and 700 μM) 10 min prior to ischaemia. Heart tissue was snap frozen and a, GABA and b, succinate abundance quantified relative to normoxic levels by LC-MS. n=3, * p<0.05.
Mice were heparinised (200 U i.p.) and anaesthetised with sodium pentobarbital (100 mg/kg i.p.). […]
Equal amounts wet weight murine tissue were lysed in 250 μL extraction solution (ES; 30% acetonitrile, 50% methanol and 20% water) per 10 mg tissue in Precellysis 24 vials, following the manufacturer's instructions. […] For the LC separation, column A was Sequant Zic-Hilic (150 mm×4.6 mm, internal diameter 3.5 μm) with a guard column (20 mm×2.1 mm 3.5 μm) from HiChrom, Reading, UK. […] Gradient: 0-3 min 80% B, 25 min 20% B, 26 min 80% B, 36 min 80% B. Column B was sequant Zic-pHilic (150 mm×2.1 mm i.d. 3.5 μm) with guard column (20 mm×2.1 mm i.d. 3.5 Mm) from HiChrom, Reading, UK. […] Spectra were analysed using both targeted and untargeted approaches. For the targeted approach spectra were analysed using XCalibur Qual Browser and XCalibur Quan Browser softwares (Thermo Scientific) by referencing to an internal library of compounds. […]

[4] = test system: succinate accumulation in the ischaemic myocardium; assay: Succinate accumulation in the ischaemic myocardium in vivo (LC-MS); details: i.v. infusion in vivo, mouse; 30 min ischaemia
Protocol: For the in vivo heart IR model an open-chest, in situ heart model was used^31,32. Male mice (8-10 weeks; Charles River Laboratories, UK) were anaesthetised with sodium pentobarbital (70 mg/kg intraperitoneally (i.p.)), intubated endotracheally and ventilated with 3 cm H2O positive-end expiratory pressure. Adequacy of anaesthesia was monitored using corneal and withdrawal reflexes. Ventilation frequency was kept at 110 breaths per minute with tidal volume between 125-150 μL. A thoracotomy was performed and the heart exposed by stripping the pericardium. A prominent branch of the left anterior descending coronary artery (LAD) was surrounded by a 7-0 Prolene suture that was then passed through a small plastic tube. Ischaemia was induced by tightening the tubing against the heart surface. To assess metabolites during IR in vivo, mice were divided into three groups: 30 min ischaemia, 30 min ischaemia plus 5 min reperfusion and 30 min sham-operation in which the suture was placed but the LAD was not occluded. At the end of each protocol tissue was removed from the at risk and peripheral areas of the heart, selected visually by comparing white versus red tissue, and snap-frozen in liquid nitrogen. Sham-operated tissue was removed from the presumed risk zone. Infarct size was assessed after 30 min of ischaemia followed by 120 min reperfusion using 2% triphenyltetrazolium chloride staining and is expressed as a percentage of the risk zone^33. […] For the LC separation, column A was Sequant Zic-Hilic (150 mm×4.6 mm, internal diameter 3.5 μm) with a guard column (20 mm×2.1 mm 3.5 μm) from HiChrom, Reading, UK. […] (150 mm×2.1 mm i.d. 3.5 μm) with guard column (20 mm×2.1 mm i.d. […]) from HiChrom, Reading, UK. […] Spectra were analysed using both targeted and untargeted approaches. For the targeted approach spectra were analysed using XCalibur Qual Browser and XCalibur Quan Browser softwares (Thermo Scientific) by referencing to an internal library of compounds. […] The arrays of spectra were then statistically analysed using the functions explore.data and univariate of the R package mum a^40.

[5] = test system: heart, simulated ischemia-reperfusion injury; details: Wojtovich et al 2009; mKATP channel dependent mechanism; cited from earlier work

O=C(O)CC[N+](=O)[O-] [3-nitropropionate]
reversibility of complex II inhibition [1]: irreversible
ischemia-reperfusion injury [2]: reduced ischemia-reperfusion injury

O=C(CC(=O)C(F)(F)F)c1cccs1 [TTFA, 2-thenoyltrifluoroacetone]
reversibility of complex II inhibition [1]: irreversible

C=CC(N)CCC(=O)O (stereo not shown) [vigabatrin]
ischaemic succinate accumulation [3]: did not decrease ischaemic succinate accumulation

NC(=O)c1ncn([C@@H]2O[C@H](CO)[C@@H](O)[C@H]2O)c1N [AICAR, 5-amino-1-β-D-ribofuranosyl-imidazole-4-carboxamide]
succinate accumulation in the ischaemic myocardium [4]: decreased ischaemic succinate levels

NOCC(=O)O [AOA, aminooxyacetate]
succinate accumulation in the ischaemic myocardium [4]: decreased ischaemic succinate levels

COc1[nH]c(=O)c(C(=O)[C@@H](C)C[C@H](C)[C@@H](Cl)CCl)c(O)c1OC [atpennin A5]
concentration to achieve half-maximal inhibition [1]: nanomolar levels
reversibility of complex II inhibition [1]: irreversible
protection of the heart against simulated ischemia-reperfusion injury [5]: protects the heart against simulated ischemia-reperfusion injury

O=C(O)CC(=O)O [malonate]
concentration to achieve half-maximal inhibition [1]: millimolar levels
